Measurements: patent US20230092679A1, “MCL-1 INHIBITOR ANTIBODY-DRUG CONJUGATES AND METHODS OF USE” (NOVARTIS AG, priority 2019, published 2023)

Assays:
A4-Fuk = test: CellTiter-Glo proliferation assay (Example 6); type: cell-based; parameters: key: **: tested but curve did not converge; conditions: CD38 Mcl-1 ADCs and payload P1, 5 days
Method: (§1) Mcl-1 ADCs were tested on nine endogenous cancer cell lines and one isogenic cell line engineered to overexpress a target of interest. Six targets were assessed: HER2, BCMA, CD38, CD48, CD79b, and CD33.
(§2) Cell lines • HER2: HCC1954 (ATCC No. CRL-2338 cultured in RPMI-1640+10% FBS) and HCC2218 (ATCC No. CRL-2343 cultured in RPMI-1640+10% FBS). • BCMA: NCI-H929 (ATCC No. CRL-9068 cultured in RPMI-1640+10% FBS+0.05 mM 2-mercaptoethanol). • CD38: A4-Fuk (JCRB No. JCRB0097 cultured in RPMI-1640+10% FBS) and KMS-21 BM (JCRB No. JCRB1185 cultured in RPMI-1640+10% FBS). • CD48: NCI-H929 (ATCC No. CRL-9068 cultured in RPMI-1640+10% FBS+0.05 mM 2-mercaptoethanol), OPM-2 (DSMZ No. ACC-50 cultured in RPMI-1640+10% FBS) and AMO1 (DSMZ No. ACC-538 cultured in RPMI-1640+20% FBS). • CD79b: RS4;11 (ATCC No. CRL-1873 cultured in RPMI-1640+10% FBS). • CD33: MOLM-13 (DSMZ No. ACC-554 cultured in RPMI-1640+10% FBS) and an isogenic cell line, AMO1-CD33 clone D2. AMO1 cell line was transfected to generate a stable AMO1 cell line expressing the exogenous protein of interest, CD33, AMO1-CD33 clone D2 (cultured in RPMI-1640+20% FBS).
(§3) The ability of Mcl-1 ADCs to inhibit cell proliferation and survival was assessed using a Promega CellTiter-Glo® proliferation assay. Cell lines were cultured in media optimal for their growth at 5% CO2, 37° C. in a tissue culture incubator. Prior to seeding for the proliferation assay, the cells were split at least 2 days before the assay to ensure optimal growth density. On the day of seeding, adherent cells were lifted off tissue culture flasks using 0.25% trypsin. Cell viability and cell density were determined using a cell counter (Vi-Cell XR Cell Viability Analyzer, Beckman Coulter). […] Cells were seeded at a density of 1,000 cells per well in 45 μl of standard growth media. Plates were incubated at 5% CO2, 37° C. overnight in a tissue culture incubator. The next day, free Mcl-1 payload (P1), targeting Mcl-1 ADCs, and non-targeting isotype ADCs were prepared at 10× in standard growth media. The prepared drug treatments were then added to the cells resulting in final concentrations of 0.0005-500 nM and a final volume of 50 μl per well. Each drug concentration was tested in quadruplets. Plates were incubated at 5% CO2, 37° C. for 5 days in a tissue culture incubator, after which cell viability was assessed through the addition of 25 μl of CellTiter Glo® (Promega, Cat. No. G7573), a reagent which lyses cells and measures total adenosine triphosphate (ATP) content. Plates were incubated at room temperature for 10 minutes to stabilize luminescent signals prior to reading using a luminescence reader (EnVision Multilabel Plate Reader, PerkinElmer). […]

KMS-21 BM = test: CellTiter-Glo proliferation assay (Example 6); type: cell-based; parameters: key: **: tested but curve did not converge; conditions: CD38 Mcl-1 ADCs and payload P1, 5 days
Method: as §1, §2, §3

AMO1-CD33 clone D2 = test: CellTiter-Glo proliferation assay (Example 6); type: cell-based, human; conditions: CD33 Mcl-1 ADCs and payload P1, 5 days
Method: as §1, §2, §3

AMO1 = test: CellTiter-Glo proliferation assay (Example 6); type: cell-based, human; conditions: CD48 Mcl-1 ADCs and payload P1, 5 days
Method: as §1, §2, §3

5340hx = test: In vitro ADC activity, AML cell lines, CellTiter-Glo (Example 20); type: cell-based; conditions: 5 days
eol1 = test: as above; type: cell-based; conditions: eol1, 5 days
f36p = test: as above; type: cell-based; conditions: 5 days
hel = test: as above; type: cell-based; conditions: 5 days
m07e = test: as above; type: cell-based; conditions: 5 days
molm13 = test: as above; type: cell-based; conditions: molm13, 5 days
molm16 = test: as above; type: cell-based; conditions: molm16, 5 days
nb4 = test: as above; type: cell-based; conditions: nb4, 5 days
nomo1 = test: as above; type: cell-based; conditions: nomo1, 5 days
pl21 = test: as above; type: cell-based; conditions: pl21, 5 days
skm1 = test: as above; type: cell-based; conditions: skm1, 5 days
thp1 = test: as above; type: cell-based; conditions: thp1, 5 days

GI50 (molm13; Homo sapiens, MOLM-13, 120 h): 2 nM
GI50 (molm16; 120 h): 45 nM
GI50 (thp1; Homo sapiens, THP-1, 120 h): 28 nM
SMILES: COc1ccccc1-c1nccc(COc2ccccc2C[C@@H](Oc2ncnc3sc(-c4ccc(F)cc4)c(-c4ccc(OCCN5CCN(C)CC5)c(Cl)c4C)c23)C(=O)O)n1 [P1, (2R)-2-[5-[3-chloro-2-methyl-4-[2-(4-methylpiperazin-1-yl)ethoxy]phenyl]-6-(4-fluorophenyl)thieno[2,3-d]pyrimidin-4-yl]oxy-3-[2-[[2-(2-methoxyphenyl)pyrimidin-4-yl]methoxy]phenyl]propanoic acid]
Amax A4FUK (A4-Fuk): **
IC50 (nM) A4FUK (A4-Fuk): **
Amax KMS21 BM (KMS-21 BM): **
IC50 (nM) KMS21 BM (KMS-21 BM): **
Amax AMO1-CD33 (AMO1-CD33 clone D2): 103.00
IC50 (AMO1-CD33 clone D2; Homo sapiens, 120 h): 1.53 nM
Amax AMO1 (AMO1): 19.97
IC50 (AMO1; Homo sapiens, AMO1, 120 h): 0.038 nM
GI50 (5340hx; 120 h): 1 nM
Amax (5340hx; in % (unit assumed)): −92
GI50 (eol1; Homo sapiens, 120 h): 1 nM
Amax (eol1; in % (unit assumed)): −91
GI50 (f36p; 120 h): > 10000 nM
Amax (f36p; unit assumed): 51%
Amax (hel; unit assumed): 4%
GI50 (hel; Homo sapiens, 120 h): 6090 nM
Amax (m07e; in % (unit assumed)): −74
GI50 (m07e; M-07e, 120 h): 94 nM
Amax (molm13; in % (unit assumed)): −54
Amax (molm16; in % (unit assumed)): −76
GI50 (nb4; Homo sapiens, NB-4, 120 h): 3 nM
Amax (nb4; in % (unit assumed)): −62
GI50 (nomo1; Homo sapiens, NOMO-1, 120 h): 1 nM
Amax (nomo1; in % (unit assumed)): −80
GI50 (pl21; PL-21, 120 h): 350 nM
Amax (pl21; in % (unit assumed)): −55
GI50 (skm1; Homo sapiens, SKM-1, 120 h): 119 nM
Amax (skm1; in % (unit assumed)): −49
Amax (thp1; in % (unit assumed)): −72
